Laboratory results reported in patent US20080058271A1, “Prevention of primary sjogren' s Syndrome by ICA69 deficiency” (priority 2002, published 2008).
Ends that are not written are not given here.

B1: ICA69: Human recombinant islet cell autoantigen 69 kDa (protein)
chain: MSGHKCSYPWDLQDRYAQDKSVVNKMQQKYWETKQAFIKATGKKEDEHVVASDADLDAKLELFHSIQRTCLDLSKAIVLYQKRICFLSQEENELGKFLRSQGFQDKTRAGKMMQATGKALCFSSQQRLALRNPLCRFHQEVETFRHRAISDTWLTVNRMEQCRTEYRGALLWMKDVSQELDPDLYKQMEKFRKVQTQVRLAKKNFDKLKMDVCQKVDLLGASRCNLLSHMLATYQTTLLHFWEKTSHTMAAIHESFKGYQPYEFTTLKSLQDPMKKLVEKEEKKKINQQESTDAAVQEPSQLISLEEENQRKESSSFKTEDGKSILSALDKGSTHTACSGPIDELLDMKSEEGACLGPVAGTPEPEGADKDDLLLLSEIFNASSLEEGEFSKEWAAVFGDGQVKEPVPTMALGEPDPKAQTGSGFLPSQLLDQNMKDLQASLQEPAKAASDLTAWFSLFADLDPLSNPDAVGKTDKEHELLNA

Tests used:
[1] = system: peripheral blood mononuclear cells (PBMC); assay: Human T cell proliferative responses in PBMC; type: cell-based; conditions: for T cell responses in patients with SLE and in healthy controls / patients with primary SS with positive T cell responses: PBMC; for T cell responses in patients with SLE and in healthy controls: SLE n=6, healthy controls n=12; for patients with primary SS with positive T cell responses: n=9, P 0.008 vs. SLE, P 0.004 vs. healthy controls; for T cell responses to control antigens (stimulation index): PBMC of primary SS, SLE patients and healthy controls
Method: FIG. 7.(A) T cell responses to ICA69, BSA, Tep69, and ABBOS were analyzed in patients with primary SS (n=9) SLE patients (n=6) or healthy controls (n=12). Positive responses to tetanus toxoid (TT) contrasted with negative responses to OVA, actin or the type 1 diabetes-associated GAD65 peptide, p555. Data are expressed as stimulation index (SI, experimental/background cpm, as described herein). Background counts were similar in all cohorts (mean±SD: 1154±354 cpm). FIG. 8. Autoantibodies to ICA69 (1 μg protein/lane) were detected in Western blots of sera (1 to 1000 dilution) from patients with pSS (lanes 1-5) but not in controls (lanes 6-8).
Blood samples were obtained from patients (n=15) with primary SS or SLE at the Arthritis Center at Toronto Western Hospital and from healthy, adult volunteers through ethics-board approved consent (n=12). pSS patients were female, had documented xerostomia and xerophthalmia and met San Diego disease criteria. All were anti-Ro antibody positive, 6 had anti-fodrin autoantibodies and all had minor salivary gland biopsy focus scores of >5. Healthy controls (n=12) of similar age and gender profile were recruited from staff. Fresh blood was used for T cell studies. In immunoblotting experiments, sera from patients and controls were diluted at 1:1000 and blotted on nitrocellulose containing […] of recombinant ICA69 protein to detect the presence of anti-ICA69 antibodies.
(§1) NOD lymph-node, spleen and human peripheral blood T cell responses were measured with three slightly different protocols. Draining lymph node cells from 10 week old NOD females were pooled. 2×10^5 lymph node cells along with 2×10^5 irradiated (1100 rad) syngeneic spleen cells were cultured in serum-free AIM-V media (Life Technologies, Mississauga, Ontario, Canada) in the presence of protein or peptide antigen. Proteins (ICA69, BSA or OVA) were used at concentrations of […], peptides (Tep69, ABBOS) at […]. After 72 hr of incubation, cultures were pulsed overnight with […] of [^3H]thymidine, harvested and subjected to liquid scintillation counting. Experiments were repeated three times with similar results, each with lymph nodes pooled from groups of 4-7 mice. Proliferation assays with spleen cells used 4×10^5 responding cells/well and no irradiated splenocytes. For the detection of human T cell responses, Ficoll-Hypaque purified peripheral blood mononuclear cells (PBMC) were cultured at 10^5 cells/well for one week in serum-free Hybrimax 2897 medium (Sigma) supplemented with human IL-2 (10 U/well) and 0.01-10 mg of antigen^15. This assay performed well in a large, blinded study and in the first international T cell workshop of the Immunology of Diabetes Society^22.
Proliferative T cell responses were expressed as stimulation index (SI, experimental/control cpm). SI's greater than the mean SI in OVA-stimulated cultures plus 3 SD were deemed positive^15. Numeric data were compared by Mann-Whitney tests, Fisher's exact test was used to analyze tables. All P values were two-tailed and significance was set at 5%. Figures present mean values plus lSD.
To determine if ICA69 was an autoimmune target in patients with primary SS, we first measured T cell responses to ICA69 and Tep69 in PBMC from patients with primary SS (n=9), systemic lupus erythematosus (SLE, n=6) and age-matched healthy controls (n=12) (FIG. 7A).

NOD lymph node cells = assay: T cell proliferative responses in draining lymph node cells; type: cell-based, mouse; conditions: 10 week old NOD females, pooled lymph node cells
Method: FIG. 2. T cell proliferative responses to ICA69, its dominant epitope, Tep69, BSA, and its dominant NOD mouse epitope, ABBOS, were measured in lymph nodes draining the pancreas (A), and submandibular glands (B), or lymph nodes draining the lower (C) or upper (D) extremities. Gray columns: control cultures stimulated with ovalbumin (OVA) or Medium (MED) only. To obtain sufficient cell numbers, lymph node cells were pooled from seven mice. One of three similar data sets is shown.
as §1
This phenotype could reflect a role for ICA69 as an autoantigen or a role for ICA69 protein-function. To begin an analysis of these two alternatives, we measured T cell autoreactivity to ICA69 and its immunodominant T cell epitope, Tep69, in 10 week old NOD females. Proliferative in vitro recall responses were assessed in draining lymph nodes from various tissues, in order to localize where T cell tolerance to ICA69 was lost. […] Spleen cell responses to ICA69, Tep69, BSA and ABBOS were present as previously described by us^21 and others^24 (data not shown, but for example see FIG. 3F).

MHC class II = conditions: reference 21; cited from earlier work
[2] = system: NOD mouse sialoadenitis (submandibular gland mononuclear foci); conditions: single i.p. 200 mg ABBOS in IFA, 10 wk old NOD females
[3] = system: NOD mouse pSS (salivary disease); conditions: instantly disclosed protocol

| Molecule | T cell responses in patients with SLE and in healthy controls [1] | patients with primary SS with positive T cell responses [1] | T cell proliferative responses in pancreatic and submandibular lymph node cells (NOD lymph node cells) | T cell proliferative responses in popliteal or axillary lymph nodes (NOD lymph node cells) | T cell responses to control antigens (stimulation index) [1] | further results |
| --- | --- | --- | --- | --- | --- | --- |
| AFIKATGKKEDE [Tep69] | absent | 8 of 9 | detected | not in popliteal or axillary lymph nodes |  | MHC class II affinity (MHC class II): very low |
| FKADEKKFWGKYLYE [ABBOS, FKADEKKFWGKYLYE] |  |  |  |  |  | mice with moderate disease exacerbation [2]: 12%; mice with moderate disease exacerbation (of mice analyzed) [2]: 2/17; disease acceleration with the optimized treatment protocol [3]: no acceleration |
| OVA: Ovalbumin (Sigma), control antigen |  |  |  |  | negative |  |
| TT: tetanus toxoid, positive control antigen |  |  |  |  | Positive |  |
| actin |  |  |  |  | negative |  |
| B1 | absent | 8 of 9 | detected | not in popliteal or axillary lymph nodes |  |  |
